Source: US20060223996A1, “IL-12 modulatory compounds” (Synta Pharmaceuticals Corp., priority 2004, published 2006)

Each molecule was assayed on adjuvant arthritis (AA) (assay: Treatment of adjuvant arthritis in rats). Conditions: female Lewis rats, oral once a day for 7 days (day 7-14) after MTB induction, vs vehicle.
Type: in vivo, rat
Protocol: Treatment of adjuvant arthritis in rats: Adjuvant arthritis (AA) was induced in female Lewis rats by the intracutaneous injection (base of the tail) of 0.1 mL of a 10 mg/mL bacterial suspension made from ground, heat-killed Mycobacterium tuberculosis (MTB) H37Ra suspended in incomplete Freund's adjuvant. Rats were given Compound 1 or vehicle orally once a day for 7 days (day 7-14), starting day 7 after mycobacterium induction. The development of polyarthritis was monitored daily by macroscopic inspection and assignment of an arthritis index to each animal, during the critical period (days 10 to 25 post-immunization).
The intensity of polyarthritis was scored according to the following scheme: (a) Grade each paw from 0 to 3 based on erythema, swelling, and deformity of the joints: 0 for no erythema or swelling; 0.5 if swelling is detectable in at least one joint; 1 for mild swelling and erythema; 2 for swelling and erythema of both tarsus and carpus; and 3 for ankylosis and bony deformity. Maximum score for all 4 paws was thus 12. […]
Experiments with the AA model were repeated four times. […] The arthritis score used in this model was a reflection of the inflammatory state of the structures monitored and the results therefore show the ability of the test compound to provide relief for this aspect of the pathology.

SMILES	development of polyarthritis
Cc1[nH]c2ccc(NC(=O)c3cc(OCCN4CCOCC4)nc(N4CCOCC4)n3)cc2c1C [Compound 1, 2-Morpholin-4-yl-6-(2-morpholin-4-yl-ethoxy)-pyrimidine-4-carboxylic acid (2,3-dimethyl-1H-indol-5-yl)-amide]	delayed the development of polyarthritis in a dose-dependent manner

Same assay, conditions: female Lewis rats, oral once a day for 7 days (day 7-14) after MTB induction, vs vehicle; FIG. 1

SMILES	arthritic score (arthritic index)
Cc1[nH]c2ccc(NC(=O)c3cc(OCCN4CCOCC4)nc(N4CCOCC4)n3)cc2c1C [Compound 1, 2-Morpholin-4-yl-6-(2-morpholin-4-yl-ethoxy)-pyrimidine-4-carboxylic acid (2,3-dimethyl-1H-indol-5-yl)-amide]	reduced the arthritic score

What follows are molecules tested on IL-12 (assay: Murine in vitro assay: IL-12 production in IFNγ/SAC-stimulated splenocytes of immunized Balb/c mice (ELISA)). Conditions: Mus musculus, Splenocyte; Balb/c splenocytes stimulated with IFNγ and SAC.
Type: cell-based
Protocol: Murine In Vitro Assay. Balb/c mice (Taconic, Germantown, N.Y.) were immunized with Mycobacterium tuberculosis H37Ra (Difco, Detroit, Mich.). The splenocytes were harvested 5 days and prepared in RPMI medium supplemented with 10% FCS and antibiotics in a flat bottom 96-well plate with 1×10^6 cells/well. The splenocytes were then stimulated with a combination of IFNγ (60 ng/mL) and SAC (0.025%) (LPS (20 μg/mL can be used instead of SAC)) in the presence of a test compound. Cell-free supernatants were taken 24 h later for the measurement of cytokines. The preparation of compound and the assessment of cell viability were carried out as described above. […] Mouse IL-12 p70, IL-10, IL-1β, and TNFα are measured using ELISA kits from Endogen, according to the manufacturer's instructions.

SMILES	IC50
Cc1[nH]c2ccc(NC(=O)c3cc(OCCN)nc(N4CCOCC4)n3)cc2c1C [Compound 273, 6-(2-Amino-ethoxy)-2-morpholin-4-yl-pyrimidine-4-carboxylic acid (2,3-dimethyl-1H-indol-5-yl)-amide]	1250 nM

What follows are molecules tested on IL-12 (assay: Human in vitro assay: inhibition of IL-12 production in IFNγ/LPS- or IFNγ/SAC-stimulated human PBMC or THP-1 cells (ELISA)). Conditions: read-out: IC50 Range (representative in vitro IC50 data).
Type: cell-based
In short: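 Sandwich ELISA for IL-12 (p70, p40) on supernatants collected 18 h after stimulation gave IC50 values; MTS monitored viability. THP-1 cells: IFNγ 100 U/mL priming 22 h, SAC 0.025%. PBMC: IFNγ 30 U/mL for 22 h plus LPS 1 μg/mL, or IFNγ 100 U/mL plus SAC 0.01%. Final DMSO 0.25%.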

SMILES	IC50
Cc1[nH]c2ccc(NC(=O)c3cc(OCCN)nc(N4CCOCC4)n3)cc2c1C [Compound 273, 6-(2-Amino-ethoxy)-2-morpholin-4-yl-pyrimidine-4-carboxylic acid (2,3-dimethyl-1H-indol-5-yl)-amide]	< 1000 nM
Cc1[nH]c2ccc(NC(=O)c3cc(OCCN4CCOCC4)nc(N4CCOCC4)n3)cc2c1C [Compound 1, 2-Morpholin-4-yl-6-(2-morpholin-4-yl-ethoxy)-pyrimidine-4-carboxylic acid (2,3-dimethyl-1H-indol-5-yl)-amide]	< 1000 nM
CCc1c[nH]c2ccc(NC(=O)c3cc(N4CCC(C)CC4)nc(N4CCOCC4)n3)cc12 [Compound 178, 6-(4-Methyl-piperidin-1-yl)-2-morpholin-4-yl-pyrimidine-4-carboxylic acid (3-ethyl-1H-indol-5-yl)-amide]	< 1000 nM
CNc1cc(C(=O)Nc2ccc3[nH]c(C)c(C)c3c2)nc(N2CCOCC2)n1 [Compound 247, N-(2,3-dimethyl-1H-indol-5-yl)-6-(methylamino)-2-morpholino-pyrimidine-4-carboxamide]	< 1000 nM
Cc1ccc(NC(=O)Nc2cc(N3CCOCC3)nc(OCCN3CCOCC3)n2)cc1C [Compound 122, 1-(3,4-Dimethyl-phenyl)-3-[6-morpholin-4-yl-2-(2-morpholin-4-yl-ethoxy)-pyrimidin-4-yl]-urea]	≥ 1000 nM
Cc1[nH]c2ccc(NC(=O)c3cc(N4CCC(O)CC4)nc(N4CCOCC4)n3)cc2c1C [Compound 173, 6-(4-Hydroxy-piperidin-1-yl)-2-morpholin-4-yl-pyrimidine-4-carboxylic acid (2,3-dimethyl-1H-indol-5-yl)-amide]	< 1000 nM
CCN(CC)C(=O)COc1cc(C(=O)Nc2ccc3[nH]c(C)c(C)c3c2)nc(N2CCOCC2)n1 [Compound 256, 6-(2-(diethylamino)-2-oxoethoxy)-N-(2,3-dimethyl-1H-indol-5-yl)-2-morpholinopyrimidine-4-carboxamide]	< 1000 nM
CONc1cc(C(=O)Nc2cccc(N(C)C)c2)nc(N2CCOCC2)c1 [Compound 160, 4-Methoxyamino-6-morpholin-4-yl-pyridine-2-carboxylic acid (3-dimethylamino-phenyl)-amide]	< 1000 nM
COCCN(C)c1cc(C(=O)Nc2ccc3c(c2)OCO3)nc(N2CCOCC2)n1 [Compound 210, N-(benzo[d][1,3]dioxol-5-yl)-6-((2-methoxyethyl)(methyl)amino)-2-morpholinopyrimidine-4-carboxamide]	≥ 1000 nM
O=C(c1cc(OCCN2CCOCC2)nc(N2CCOCC2)n1)n1ccc2ccccc21 [Compound 54, Indol-1-yl-[2-morpholin-4-yl-6-(2-morpholin-4-yl-ethoxy)-pyrimidin-4-yl]-methanone]	≥ 1000 nM
CCc1c(C)[nH]c2ccc(NC(=O)c3cc(OCCN4CCOC4=O)nc(N4CCOCC4)n3)cc12 [Compound 222, 2-Morpholin-4-yl-6-[2-(2-oxo-oxazolidin-3-yl)-ethoxy]-pyrimidine-4-carboxylic acid (3-ethyl-2-methyl-1H-indol-5-yl)-amide]	< 1000 nM
CCc1c(C)[nH]c2ccc(NC(=O)Nc3cc(NCCN4CCOCC4)nc(N4CCOCC4)n3)cc12 [Compound 270, 1-(3-ethyl-2-methyl-1H-indol-5-yl)-3-(2-morpholino-6-(2-morpholinoethylamino)pyrimidin-4-yl)urea]	< 1000 nM
CCNC(=O)CNc1cc(C(=O)Nc2ccc3[nH]c(C)c(C)c3c2)nc(N2CCOCC2)n1 [Compound 105, 6-(Ethylcarbamoylmethyl-amino)-2-morpholin-4-yl-pyrimidine-4-carboxylic acid (2,3-dimethyl-1H-indol-5-yl)-amide]	< 1000 nM
O=C(Nc1ccc2[nH]c3c(c2c1)CCCC3)Nc1cc(OCCN2CCOCC2)nc(N2CCOCC2)n1 [Compound 325, 1-[2-Morpholin-4-yl-6-(2-morpholin-4-yl-ethoxy)-pyrimidin-4-yl]-3-(6,7,8,9-tetrahydro-5H-carbazol-3-yl)-urea]	< 1000 nM
CC(C)c1cccc(NC(=O)Nc2cc(OCCN3CCOCC3)nc(N3CCOCC3)n2)c1 [Compound 330, 1-(3-Isopropyl-phenyl)-3-[2-morpholin-4-yl-6-(2-morpholin-4-yl-ethoxy)-pyrimidin-4-yl]-urea]	< 1000 nM
COCCN(C)c1cc(C(=O)Nc2cccc(C#CC(C)(C)O)c2)nc(N2CCOCC2)n1 [Compound 226, 6-[(2-Methoxy-ethyl)-methyl-amino]-2-morpholin-4-yl-pyrimidine-4-carboxylic acid [3-(3-hydroxy-3-methyl-but-1-ynyl)-phenyl]-amide]	≥ 1000 nM
O=C(Nc1ccc2[nH]c3c(c2c1)CCCC3)c1cc(N2CCC(O)CC2)cc(N2CCOCC2)n1 [Compound 185, 4-Hydroxy-6′-morpholin-4-yl-3,4,5,6-tetrahydro-2H-[1,4′]bipyridinyl-2′-carboxylic acid (6,7,8,9-tetrahydro-5H-carbazol-3-yl)-amide; compound with methanesulfonic acid]	< 1000 nM
Cc1[nH]c2ccc(NC(=O)c3cc(N(C)C)nc(N4CCOCC4)n3)cc2c1C [Compound 248, N-(2,3-dimethyl-1H-indol-5-yl)-6-(dimethylamino)-2-morpholino-pyrimidine-4-carboxamide]	< 1000 nM
COCCN(C)c1cc(C(=O)Nc2ccc3c(c2)N(C)CC3)nc(N2CCOCC2)n1 [Compound 211, 6-((2-methoxyethyl)(methyl)amino)-N-(1-methylindolin-6-yl)-2-morpholinopyrimidine-4-carboxamide]	< 1000 nM
CONc1cc(C(=O)Nc2cccc(N(C)C)c2)nc(N2CCOCC2)n1 [Compound 196, N-(3-(dimethylamino)phenyl)-6-(methoxyamino)-2-morpholinopyrimidine-4-carboxamide]	< 1000 nM
Cc1[nH]c2ccc(NC(=O)c3cc(N4CCN(c5ccccn5)CC4)nc(N4CCOCC4)n3)cc2c1C [Compound 90, 2-Morpholin-4-yl-6-(4-pyridin-2-yl-piperazin-1-yl)-pyrimidine-4-carboxylic acid (2,3-dimethyl-1H-indol-5-yl)-amide]	< 1000 nM
Cc1cc(C(=O)Nc2ccc3c(c2)c(C)c(C)n3O)nc(N2CCOCC2)n1 [Compound 319, 6-Methyl-2-morpholin-4-yl-pyrimidine-4-carboxylic acid (1-hydroxy-2,3-dimethyl-1H-indol-5-yl)-amide]	< 1000 nM
Cc1cccc(OC(=O)Nc2cc(N3CCOCC3)nc(OCCc3ccccn3)n2)c1 [Compound 88, [6-Morpholin-4-yl-2-(2-pyridin-2-yl-ethoxy)-pyrimidin-4-yl]-carbamic acid m-tolyl ester]	≥ 1000 nM
